Read-outs that look alike come from different tables or passages of the source.
Assays:
[1] = Pharmacokinetic drug-drug interaction of the compound of the formula I and ritonavir in healthy volunteers (single dose, alone and with RTV); assay type: in vivo, human; parameters: CL/F: unit not given here; settings: for AUC(0-t) / Cmax / Tmax / half-life / AUC: human, plasma
Procedure: A single-dose, single treatment group was studied to assess the pharmacokinetic drug-drug interaction potential between the protease inhibitors the compound of the formula I and ritonavir. The compound of the formula I was administered as a solution containing 5 or 12.5 mg of the compound of the formula I, with excipients, and ritonavir was administered as the 100-mg marketed product (Norvir) 12 hours preceding and co-administration with the compound of the formula I . Baseline pharmacokinetic data for the compound of the formula I was obtained as single doses up through 100 mg. The co-administered drugs were compared with baseline data. The study was conducted in healthy volunteers Pharmacokinetic analyses were based on the results obtained in these subjects. Pharmacokinetic parameters such as AUC, Cmax, tmax, oral clearance, and terminal half-life were determined using standard noncompartmental techniques.

CYP3A4 = CYP3A4 (Homo sapiens, UniProt P08684); assay: Metabolism of the compound of the formula I by the cytochromes P450; assay type: in vitro ADME; settings: result in words
[2] = 12.5 mg oral single dose alone, mean
[3] = 25 mg oral single dose alone, mean
[4] = 50 mg oral single dose alone, mean
[5] = 75 mg oral single dose alone, mean
[6] = 100 mg oral single dose alone, mean
[7] = oral, 5 mg solution + RTV 100 mg, mean
[8] = oral, 5 mg, 5 mg alone (no RTV), mean
[9] = oral, 12.5 mg solution + RTV 100 mg, mean
[10] = oral, 12.5 mg, 12.5 mg alone (no RTV), mean (Table 1)
[11] = po, 12.5 mg, 12.5 mg oral single dose alone, mean (Table 2)
[12] = po, 25 mg, 25 mg oral single dose alone, mean
[13] = po, 50 mg, 50 mg oral single dose alone, mean
[14] = po, 75 mg, 75 mg oral single dose alone, mean
[15] = po, 100 mg, 100 mg oral single dose alone, mean
[16] = with ritonavir 100 mg versus alone

CYP3A4, sequence (P08684 whole entry): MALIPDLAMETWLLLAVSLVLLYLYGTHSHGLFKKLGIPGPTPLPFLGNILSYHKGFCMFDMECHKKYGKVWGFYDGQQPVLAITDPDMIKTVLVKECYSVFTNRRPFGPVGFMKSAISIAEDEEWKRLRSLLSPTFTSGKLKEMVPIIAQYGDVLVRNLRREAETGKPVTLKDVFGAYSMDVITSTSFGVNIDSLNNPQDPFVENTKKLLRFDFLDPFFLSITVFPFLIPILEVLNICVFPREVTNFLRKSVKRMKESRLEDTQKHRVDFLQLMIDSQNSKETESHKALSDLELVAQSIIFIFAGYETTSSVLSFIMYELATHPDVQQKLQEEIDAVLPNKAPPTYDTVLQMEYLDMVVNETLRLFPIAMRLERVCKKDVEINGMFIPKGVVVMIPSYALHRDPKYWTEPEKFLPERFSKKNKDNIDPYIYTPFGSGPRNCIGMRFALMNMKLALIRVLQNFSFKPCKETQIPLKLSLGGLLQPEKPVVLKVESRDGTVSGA

CCN1c2ncc(CCOc3cc[n+]([O-])c4ccccc34)cc2C(=O)N(C)c2cccnc21 [the compound of the formula I, 5,11-Dihydro-11-ethyl-5-methyl-8-{2-{(1-oxido-4-quinolinyl)oxy}ethyl}-6H-dipyrido[3,2-b:2′,3′-e] [1,4]diazepin-6-one]
% Renally eliminated as unchanged drug [1, 2]: 0.21%
CL/F [1, 2]: 243495.99
% Renally eliminated as unchanged drug [1, 3]: 0.41%
CL/F [1, 3]: 200752.61
% Renally eliminated as unchanged drug [1, 4]: 0.48%
CL/F [1, 4]: 124815.56
% Renally eliminated as unchanged drug [1, 5]: 0.60%
CL/F [1, 5]: 263277.68
% Renally eliminated as unchanged drug [1, 6]: 0.81%
CL/F [1, 6]: 75634.54
AUC(0-t) ([1]; oral, 5 mg solution + RTV 100 mg (12 h before and co-administered), mean): 578 ng·h/mL
Cmax [1, 7]: 22.8 ng/mL
Tmax [1, 7]: 4 h
half-life ([1]; oral, 5 mg solution + RTV 100 mg, mean, read-out: half-life (converted)): 15.3 h
AUC(0-t) [1, 8]: 13.6 ng·h/mL
Cmax [1, 8]: 3.64 ng/mL
Tmax [1, 8]: 1.5 h
AUC(0-t) ([1]; oral, 12.5 mg solution + RTV 100 mg (12 h before and co-administered), mean): 1700 ng·h/mL
Cmax [1, 9]: 74.1 ng/mL
Tmax [1, 9]: 3.59 h
half-life ([1]; oral, 12.5 mg solution + RTV 100 mg, mean, read-out: half-life (converted)): 15.9 h
AUC(0-t) [1, 10]: 57.1 ng·h/mL
Cmax [1, 10]: 14.8 ng/mL
Tmax [1, 10]: 1 h
half-life ([1]; oral, 12.5 mg, 12.5 mg alone (no RTV), mean (Table 1), read-out: half-life (converted)): 4.1 h
half-life ([1]; oral, co-administration with ritonavir 100 mg, read-out: half-life upon co-administration with ritonavir (converted)): 15 h
half-life ([1]; oral, without ritonavir, single dose range of 1-100 mg, read-out: half-life without ritonavir (converted)): ~2 h
Cmax [1, 11]: 14.8 ng/mL
Tmax [1, 11]: 1 h
half-life ([1]; po, 12.5 mg, 12.5 mg oral single dose alone, mean (Table 2), read-out: Half-life (converted)): 4.1 h
Cmax [1, 12]: 41.6 ng/mL
Tmax [1, 12]: 0.83 h
half-life ([1]; po, 25 mg, 25 mg oral single dose alone, mean, read-out: Half-life (converted)): 3.44 h
Cmax [1, 13]: 164 ng/mL
Tmax [1, 13]: 0.67 h
half-life ([1]; po, 50 mg, 50 mg oral single dose alone, mean, read-out: Half-life (converted)): 2.5 h
Cmax [1, 14]: 348 ng/mL
Tmax [1, 14]: 0.67 h
half-life ([1]; po, 75 mg, 75 mg oral single dose alone, mean, read-out: Half-life (converted)): 2.21 h
Cmax [1, 15]: 937 ng/mL
Tmax [1, 15]: 0.55 h
half-life ([1]; po, 100 mg, 100 mg oral single dose alone, mean, read-out: Half-life (converted)): 1.86 h
AUC ([1]; 12.5 mg oral single dose alone, mean (Table 2)): 63.1 ng·h/mL
AUC [1, 3]: 139 ng·h/mL
AUC [1, 4]: 437 ng·h/mL
AUC [1, 5]: 817 ng·h/mL
AUC [1, 6]: 1390 ng·h/mL
increase of AUC (plasma concentrations as measured by area under the curve) in the presence of ritonavir [1, 16]: ~40 fold
increase of mean Cmax in the presence of ritonavir [1, 16]: 5-6 fold
metabolism by the cytochromes P450, especially the CYP3A4 isoform (CYP3A4): surprisingly rapid metabolism
